# Entries after “also recorded” stand apart in the source; their conditions may differ.
# What was measured:
# TREM-1 ligand (agonist) = assay: Immunoblot revealed by mouse anti-TREM-1 mAb (TREM-1 agonist); type: binding; details: FIG. 1A
# Description: To determine whether sTLT-1 may specifically bind to the TREM-1 ligand and thus interfere with the TREM-1/TREM-1 ligand interaction, we used a specific TREM-1 agonist known to bind and activate TREM-1, mimicking TREM-1 engagement by its ligand.
# neutrophils or monocytes = assay: Flow cytometry binding to neutrophils or monocytes; parameters: species or system human; details: cells not expressing TREM-1 ligand
# Experimental: PMNs were isolated by a Sodium Diatrizoate 13.8%/Dextran 500 8.0% density gradient (polymorphprep, AbCys). Monocytes were isolated by negative cell-sorting of PB-MNCs by Monocytes Isolation Kit II (Miltenyi). Cells were then washed twice with PBS (BioMerieux) and resuspended in complete medium (RPMI 1640 containing 100 UI/mL penicillin, 100 μg/mL streptomycin, […] Amphotericin B and 10% FCS, Eurobio) before stimulation. Purity was assessed by flow cytometry (anti-CD45, -CD14 and -CD66b, Beckman Coulter).
# Isolated cells (neutrophils, monocytes or platelets) were blocked for aspecific binding with 10% human Ig (Sigma-Aldrich) for 1 hour on ice. Cells were incubated with recombinant soluble FITC-labelled TLT-1-peptides, FITC-labelled LP17 (or corresponding FITC-labelled scrambled peptides), PE-labelled anti-TREM-1 mAb (R&Dsystems), CD62P-FITC, CD66b-PE, CD45-PE, CD14-FITC (all from Beckman Coulter)
# [1] = system: TREM-1 ligand binding to immobilized TREM-1; assay: Surface plasmon resonance, LPS-stimulated neutrophils supernatants on rsTREM-1-coated sensor chip; parameters: species or system human; details: FIG. 1D
# Experimental: (C-D) Surface plasmon resonance assays of LPS-stimulated neutrophils supernatants to a rsTREM-1-coated sensorship in absence (C) or presence (D) of LR17.
# Detection of TREM-1-ligand on LPS-stimulated neutrophils supernatants was assessed by binding to a recombinant soluble form of TREM-1 (rsTREM-1) coated on a CM5 sensor chip with the BIAcore X instrument at 25° C. with a flow rate of […]. Binding specificity was verified through competition with the soluble rsTREM-1. Inhibition of TREM-1-ligand binding by LR17 was assessed.
# TREM-1 [2] = assay: NF-kB activity measurement (nuclear p50/p65 ELISA) in neutrophils; type: cell-based, human; details: LPS 0.1 μg/mL with or without αTREM-1; peptide 30 μg/mL
# Experimental: (C) NF-κB nuclear translocation: ELISA of nuclear p50 and p65 NF-kB subunits of neutrophils treated for 2 hours.
# Stimulated cells were collected, nuclear extracts obtained by nuclear extraction kit and NFkB activity measured with human p50/p65 combo transcription factor assay kit (Cayman Chemical) following the manufacturers' instructions.
# human neutrophils = assay: Neutrophil phagocytosis and oxidative burst (Phagotest, Bursttest); type: cell-based
# Experimental: Data (mean±SD) are representative of 6 different experiments.
# The quantitative determination of neutrophil phagocytosis and oxidative burst was performed by flow cytometry using the Phagotest and the Bursttest (Orpegen Pharma, Heidelberg, Germany) following the manufacturers' recommendations. A FITC-labelled opsonized E. coli was used to determine the general phagocytic activity (ingestion of one or more bacteria per cell) and the individual cellular phagocytic activity (number of bacteria per cell). For evaluation of oxidative burst activity, unlabeled opsonized E. coli, fMLP, PMA LPS and activated- or non-activated-platelets (30:1) were used as stimulants and DCFDA as a fluoregenic substrate (Invitrogen) accordingly with manufacturers' instructions.
# TREM-1 [3] = assay: Cytokine expression and production by stimulated neutrophils and monocytes; type: cell-based, human
# Experimental: (E) Cytokines expression: TNF-α mRNA levels in neutrophils stimulated for 6 hours.
# (F) Cytokines production: ELISA of TNF-α in neutrophils treated for 2, 6 and 24 hours
# (F) Cytokines expression: TNF-α mRNA levels in neutrophils stimulated for 6 hours.
# (G-H) Cytokines production: ELISA of TNF-α, in neutrophils treated for 2, 6 and 24 hours.
# Depending on the experiment, cells were stimulated in complete medium supplemented with 100 ng/mL of E. Coli LPS (0111:B4, Sigma-Aldrich), anti-TREM-1 mAb (R&Dsystems) and TLT-1-peptides at different times and concentrations on 96-wells plates (Greiner Bio One). Supernatants were collected for cytokine measurements and cells subjected to flow cytometry or lysed for protein phosphorylation analyses and NFkB activity measurement.
# Cytokines in supernatants of stimulated human cells or mouse plasma were measured by ELISA (human and mouse Quantikine ELISA kits, R&Dsystems) and cytokines panel assays (Proteome Profiler Human Cytokine Array Kit, Panel A and Proteome Profiler Mouse Cytokine Array Kit, Panel A, R&Dsystems) according to manufacturers' recommendations.
# male Balb/c mice = assay: LPS-induced endotoxemia in mice; type: in vivo, mouse
# Experimental: Male Balb/c mice (20-23 g) were randomly grouped (15 mice per group) and treated with an LD50 of LPS. LR17 (100 μg or 250 μg in 0.2 mL NaCl 0.9%), scrambled-LR17 (100 μg in 0.2 mL NaCl 0.9%), or 0.2 mL NaCl 0.9% was administered 60 min before or 60 minutes after LPS. 4-6 animals per group were sacrificed upon penthotal overdose at 2 and 4 hours after LPS injection and blood was sampled through cardiac puncture. Results are mean±SD. p values are *p<0.05, **p<0.01, ***p<0.001 compared with control animals.
# After approval by the local ethical committee, male Balb/c mice (4-6 weeks) were randomly grouped and treated with LPS i.p. in combination with LR17 (in 250 μL normal saline) or LR17-scrambled 1 hour before or after LPS challenge. The viability of mice was examined every hour, or animals were killed at regular intervals. Serum samples were collected by cardiac puncture and assayed for cytokines and sTREM-1 levels by ELISA (R&Dsystems).
sequence,measurement,setting,value
LQEEDAGEYGCMVDGAR (listed as Homo sapiens) [LR17],"binding to the TREM-1 ligand (TREM-1 agonist, anti-TREM-1 mAb)",TREM-1 ligand (agonist),able to bind the TREM-1 ligand
same,binding to neutrophils or monocytes,neutrophils or monocytes,did not bind
same,binding of the TREM-1 ligand to immobilized TREM-1,[1],able to block the binding
same,NF-κB translocation,TREM-1 [2],decreased
same,neutrophil oxidative burst mediated by E. coli,human neutrophils,decreased
same,neutrophils' phagocytic properties,human neutrophils; E. coli,did not alter
same,PMA- or fMLP-induced oxidative burst,human neutrophils; not shown,no action
same,"production of TNF-α, IL-6, IL-8, GRO-α, IL-1β, IL-16, MCP-1, MIP-1β and RANTES (broad cytokine arrays)",TREM-1 [3],decreased production
same,"LPS associated TNF-α secretion by neutrophils and monocytes, gene and protein level",TREM-1 [3]; LPS,dose-dependently reduced
same,synergy of αTREM-1 with LPS for cytokine production,TREM-1 [3]; LPS + αTREM-1,blocked; also recorded: abrogated
same,effects in human monocytes and upon TLR2 (Pam3SK4) stimulation,TREM-1 [3]; not shown,confirmed to occur
same,"cytokine production by activated neutrophils, gene and protein levels (TNF-α, IL-6, IL-8)","TREM-1 [3]; αTREM-1 5 μg/mL, peptide 30 μg/mL",able to decrease cytokine production
same,αTREM-1 induced TNF-α production by neutrophils,TREM-1 [3]; αTREM-1 alone,abrogated
same,"serum levels of TNF-α, IL-6, IL-10 and sTREM-1","male Balb/c mice; 2 and 4 h, pre- and post-treatment, versus controls",reduced
same,survival curve,"male Balb/c mice; Log Rank test, p=0.0032",confers a survival advantage
same,"survival, delayed treatment",male Balb/c mice; injected 1 hour after LPS,significant protection
same,comparison of doses (250 μg vs 100 μg) or injection times,"male Balb/c mice; mouse, in vivo",no differences between doses or injection times; also recorded: did not confer advantage
same,late death,male Balb/c mice; over 10 days,No late death occurred
same,survival,"male Balb/c mice; single i.p. dose 60 min before LPS (LD50, 25 mg/kg)",All LR17-treated animals survived
